Like-named read-outs stand apart in the source and are kept apart here.
Key:
[1] = compared with racemate; devices/gels of Table 4
Experimental: The drug/permeation enhancer reservoir was prepared by mixing, depending on the formulation, either ethylene vinyl acetate copolymer having a vinyl acetate content of 40 percent ("EVA 40", U.S.I. Chemicals, Illinois) or mineral oil and petrolatum in an internal mixer (Bra Bender type mixer) until the EVA 40 pellets fused. Oxybutynin, glycerol monolaurate and lauryl lactate were then added.
When EVA 40 was used the mixture was blended, cooled and calendered to a 5 mil thick film. This film was then laminated to an acrylic contact adhesive (MSP041991P, 3M) on one side and Medpar® backing (3M) on the opposite side. The laminate was then cut into 2.54 cm^2 circles using a stainless steel punch. Circular pieces of human-epidermis were mounted on horizontal permeation cells with the stratum corneum facing the donor compartment of the cell. The release liner of the system was then removed and the system was centered over the stratum corneum side of the epidermis. A known volume of the receptor solution (0.05M sodium phosphate buffer at pH 6) that had been equilibrated at 35° C. was placed in the receptor compartment. Air bubbles were removed; the cell was capped and placed in a water bath-shaker at 35° C.
When the mineral oil/petrolatum was used, the mixture, containing the drug and permeation enhancers, was blended/mixed and then poured into the donor side of a two-side diffusion cell. […]

[2] = Solubility of glycerol monolaurate in lauryl lactate / EVA 40; type: physicochemical; conditions: for Wt % GML in solution (free GML): based on GML solubility of 350 mg/g
Description: The unexpected effects of the specific weight percentages of the components of the permeation enhancer mixture are believed to be due, in part, to the solubility of the monoglyceride in the lactic acid ester. It is known that monoglycerides by themselves are effective permeation enhancers. The enhancement occurs by the solubilization of the monoglyceride in the lipid layer of the skin. The solubilization of the monoglyceride in the lipid layer increases as a function of lactic acid ester concentration. […] Thus, the amount of GML dissolved, ie, free GML, is dictated by and proportional to the lauryl lactate loading in the polymer.

[3] = 25 mg/mL aqueous oxybutynin, 20 μm polybutadiene film, 0.05M isotonic phosphate buffer, cited from earlier work
[4] = type: in vivo, human; conditions: transdermal, coadministered with the permeation enhancing mixture
Experimental: Representative skin permeation rates of oxybutynin through living human skin are in the range of about 5 μg/cm^2 ·hr to about 15 μg/cm^2 ·hr. Therapeutic blood levels can be achieved within approximately 6-10 hours after the initial application, and blood concentrations are maintained with subsequent system applications. The range of desired and achievable system permeation rates of oxybutynin, arriving through the skin from a limited area, is 1-20 mg over a period of 24 hours. The system application is easily adapted for shorter or longer duration treatments, but generally 72 hours is the duration for a single application.

## CCN(CC)CC#CCOC(=O)[C@](O)(c1ccccc1)C1CCCCC1 [R-oxybutynin]
[1]
  flux of R- or S-oxybutynin relative to the racemate: approximately equivalent to that of the racemate

## CCN(CC)CC#CCOC(=O)[C@@](O)(c1ccccc1)C1CCCCC1 [S-oxybutynin]
[1]
  flux of R- or S-oxybutynin relative to the racemate: approximately equivalent to that of the racemate

## CCCCCCCCCCCC(=O)OCC(O)CO (centres unmarked) [glycerol monolaurate]
[2]; 12% lauryl lactate in EVA 40
  Wt % GML in solution (free GML): 4.2%
[2]; 20% lauryl lactate in EVA 40
  Wt % GML in solution (free GML): 7.0%
[2]; 27% lauryl lactate in EVA 40
  Wt % GML in solution (free GML): 9.5%
[2]; 30% lauryl lactate in EVA 40
  Wt % GML in solution (free GML): 10.5%
[2]; in an EVA 40 matrix
  solubility in EVA 40 matrix: practically insoluble
[2]; in lauryl lactate, solution stirred
  solubility of glycerol monolaurate in lauryl lactate: 350 mg/g of solution

## CCN(CC)CC#CCOC(=O)C(O)(c1ccccc1)C1CCCCC1 (centres unmarked) [oxybutynin]
[3]; per area
  in vitro release rate: ~10 μg/cm^2 ·hr
[3]; through 49 cm^2 area
  in vitro release rate: approximately 12 mg over 24 hours
[4]
  time to therapeutic blood levels after the initial application: 6 to 10 h

From patent US5747065A, “Monoglyceride/lactate ester permeation enhancer for oxybutynin” (priority 1996, dated 1998)
